Measurements as given in publication PMC5095173, “Disulfide-activated protein kinase G Iα regulates cardiac diastolic relaxation and fine-tunes the Frank–Starling response” (Nature Communications, 2016).

Assays:
WT PKGIα = assay: Oxidation of recombinant WT PKGIα to disulfide dimer (SDS-PAGE); assay type: biochemical, human; conditions: 10 mM lipoic acid, 2 h on ice; confirmed by SDS-PAGE
Protocol: A pCDNA3 expression vector encoding human FLAG-tagged PKGIα (ref. [41]) underwent site-directed mutagenesis to generate constructs for untagged WT, C42S, M438G and C42S/M438G PKGIα. Mutations were introduced using the QuikChange II Site-Directed Mutagenesis Kit (Agilent) according to the manufacturer's instructions. Expression and purification of the PKGIα mutants was performed according to a published method[42] as follows: suspension FreeStyle 293-F cells (ThermoFisher Scientific) were transfected with the appropriate PKGIα construct using the stable cationic polymer polyethyleneimine (PEI) as a transfection reagent. After ∼72 h cells were harvested by centrifugation (400g; room temperature; 15 min), re-suspended in ice cold lysis buffer (25 mM sodium phosphate buffer pH 6.8; 10 mM ethylenediaminetetraacetic acid (EDTA); 100 mM NaCl; 10 mM benzamidine hydrochloride; and 10 mM dithiothreitol (DTT)) and frozen in liquid N2. Cells were lysed by three freeze (liquid N2)-thaw (37 °C) cycles and the lysate was clarified by centrifugation at 140,000g and 4 °C for 30 min. […] Protein concentration was determined by Pierce BCA assay (ThermoFisher) and enzyme activity was confirmed using the Omnia kinase assay kit (ThermoFisher).

[1] = 37 °C; value taken for Ca2+ calibration, no reference given; read-out: Kd of Fluo-3; cited from earlier work
Protocol: To measure cytosolic Ca^2+ levels, cells were loaded with the acetoxymethyl (AM) ester form Fluo-3 (Molecular Probes) and excited continuously at 488 nm. Emitted fluorescence was measured with a 515 nm long-pass filter. Raw fluorescent signals were calibrated off-line as per equation (1). […] Background fluorescence was subtracted from all raw signals. Custom-written Excel routines were used to measure Ca^2+ transient amplitude, diastolic Ca^2+ levels, rate of decay of the Ca^2+ transient and SR Ca^2+ content. SR Ca^2+ content was estimated fr ...

another kinase = conditions: ref www.nature.com/ncomms/2015/150810/ncomms8920; cited from earlier work
From the text: page 15: reasons explained, are complicated to interpret and they are not anticipated to be as effective as many would envisage. […] Now high profile preclinical studies show ...

[2] = test system: PKGIα (analogue-sensitive C42S/M438G), cGMP-activated; assay: Chemical genetic phosphoproteomic screen, cGMP-activated PKGIα C42S/M438G versus unactivated control; assay type: biochemical, human PKGIα; substrates in rat heart homogenate; conditions: cGMP activation; of 29 substrates with significant change
From the text: We employed a chemical genetic method[18] to identify direct substrates of cGMP-activated PKGIα and disulfide bond-activated PKGIα in heart tissue. This method involves mutation of the ATP binding-site of the kinase of interest so that it can accept a ‘bulky' N6-alkylated ATP analogue for example, N6^−phenylethyl ATP. An oxygen atom on the γ phosphate is also replaced with a sulfur atom—giving an N6-alkylated ATPγS analogue—so that the mutant kinase catalyses the transfer of a thiophosphate group (–PO3S^3−) to its substrates instead of a phosphate. The thiophosphate group is nucleophilic, providing a basis for substrates of the analogue-sensitive kinase to be purified by a ‘covalent capture' protocol. LC–MS/MS allows identification of the substrate and localization of the phosphorylation site. Thiophosphorylated proteins can also be detected with a thiophosphate ester-specific antibody. Analogue-sensitive mutants of PKGIα and PKGIα C42S (which cannot form the activating intermolecular disulfide bond) were generated by mutating Met438 in the ATP-binding domain to Gly. This mutation was chosen based on a previous study where an analogue-sensitive mutant of the catalytic subunit of PKA—which shares sequence homology with PKGIα—was engineered. Detailed protocols are given below.
A pCDNA3 expression vector encoding human FLAG-tagged PKGIα (ref. [41]) underwent site-directed mutagenesis to generate constructs for untagged WT, C42S, M438G and C42S/M438G PKGIα. Mutations were introduced using the QuikChange II Site-Directed Mutagenesis Kit (Agilent) according to the manufacturer's instructions. Expression and purification of the PKGIα mutants was performed according to a published method[42] as follows: suspension FreeStyle 293-F cells (ThermoFisher Scientific) were transfected with the appropriate PKGIα construct using the stable cationic polymer polyethyleneimine (PEI) as a transfection reagent. After ∼72 h cells were harvested by centrifugation (400g; room temperature; 15 min), re-suspended in ice cold lysis buffer (25 mM sodium phosphate buffer pH 6.8; 10 mM ethylenediaminetetraacetic acid (EDTA); 100 mM NaCl; 10 mM benzamidine hydrochloride; and 10 mM dithiothreitol (DTT)) and frozen in liquid N2. Cells were lysed by three freeze (liquid N2)-thaw (37 °C) cycles and the lysate was clarified by centrifugation at 140,000g and 4 °C for 30 min. The soluble protein fraction was loaded onto a pre-equilibrated 8-(2-aminoethylamino)adenosine-3′, 5′-cyclic monophosphate column (8-AEA-cAMP agarose; BioLog, Germany) followed by washing with 20 column volumes of lysis buffer. The column was further washed with lysis buffer +3 M NaCl (5 column volumes) and PKGIα was then eluted with lysis buffer +150 mM NaCl and 500 μM cAMP. Removal of cAMP and buffer exchange was achieved by extensive dialysis against 25 mM sodium phosphate buffer pH 6.8, 2 mM EDTA and 100 mM NaCl. For ITC analysis, WT PKGIα was incubated with 10 mM lipoic acid for 2 h on ice to obtain ∼100% disulfide dimer (confirmed by SDS-PAGE). Oxidized WT or C42S PKGIα was further purified by size exclusion chromatography using a HiLoad 16/600 Superdex 200 pg column (GE Healthcare) with 50 mM sodium phosphate buffer pH 7.4 and 100 mM NaCl. Proteins were concentrated using Amicon Ultra centrifugal filter devices (Merck Millipore). DTT was absent in storage buffers so that the activating disulfide bond would not be reduced and so that the PKGIα M438G mutant would be oxidized to disulfide dimer in the presence of air (confirmed by SDS-PAGE). Protein concentration was determined by Pierce BCA assay (ThermoFisher) and enzyme activity was confirmed using the Omnia kinase assay kit (ThermoFisher).
Male Wistar rats (9–10 weeks; body weight 300–330 g) were euthanized by intraperitoneal injection of sodium pentobarbitone (200 mg kg^−1) with heparin (500 USP units). […]

[3] = test system: PKGIα Cys42 disulfide bond; conditions: ref [3], [4]; cited from earlier work

O=C(O)CCCC[C@@H]1CCSS1 (racemic) [lipoic acid]
disulfide dimer formed (WT PKGIα): ~100%

Cc1ccc(N(CC(=O)O)CC(=O)O)c(OCCOc2cc(-c3c4cc(Cl)c(=O)cc-4oc4cc(O)c(Cl)cc34)ccc2N(CC(=O)O)CC(=O)O)c1 [Fluo-3]
Kd [1]: 864 nM

CC(=O)N[C@@H](CS)C(=O)O [NAC, N-acetylcysteine]
effect on oxidation of another kinase (another kinase): promoted the oxidation of that target

Nc1nc2c(ncn2[C@@H]2O[C@@H]3COP(=O)(O)O[C@H]3[C@H]2O)c(=O)[nH]1 [cGMP, cyclic guanosine monophosphate, reference compound]
number of proteins with significantly increased phosphorylation when PKGIα was activated [2]: 28
effect on formation of the Cys42 intermolecular disulfide bond [3]: inhibits formation of the Cys42 intermolecular disulfide bond
